Assay results: PubChem BioAssay (NCI)
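Dose response: 5 concentrations. Exposure: 48 h. Format: 96-well plates. Endpoint: linear interpolation; highest concentration if not reached. Abbreviation: GI50, concentration required for 50% inhibition of growth. TGI: total growth inhibition.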

Columns and labels:
Experiment in all cases: NCI anticancer screen, dose series, 48 h
[1] = test system: OVCAR-3 ovarian
[2] = test system: HL-60(TB) leukemia
[3] = test system: SW-620 colon
[4] = test system: SR leukemia
[5] = test system: MALME-3M melanoma
[6] = test system: RXF 393 renal
[7] = test system: NCI-H226 lung
[8] = test system: HCT-15 colon
[9] = test system: HOP-92 NSCLC
[10] = test system: LOX IMVI melanoma
[11] = test system: OVCAR-4 ovarian
[12] = test system: U251 CNS
[13] = test system: SK-MEL-2 melanoma
[14] = test system: CAKI-1 renal
[15] = test system: M14 melanoma
[16] = test system: SK-MEL-5 melanoma
[17] = test system: T-47D breast
[18] = test system: SNB-19 CNS
[19] = test system: TK-10 renal
[20] = test system: A498 renal
[21] = test system: MDA-MB-231 breast
[22] = test system: K-562 leukemia
[23] = test system: MOLT-4 leukemia
[24] = test system: SN12C renal
[25] = test system: HT29 colon
[26] = test system: HCT-116 colon
[27] = test system: IGROV1 ovarian
[28] = test system: BT-549 breast
[29] = test system: OVCAR-8 ovarian

COc1ccc2c(C3=C(c4cn(C)c5ccccc45)C(=O)NC3=O)coc2c1
GI50 [1]: 0.193 µM | TGI [1]: 0.787 µM | GI50 [2]: 0.155 µM | TGI [2]: 0.865 µM | GI50 [3]: 0.176 µM | TGI [3]: > 57.9 µM | GI50 [4]: 0.0849 µM | TGI [4]: 8.68 µM | GI50 [5]: 12.2 µM | TGI [5]: 33 µM | GI50 [6]: 0.215 µM | TGI [6]: 1.24 µM | GI50 [7]: 1.52 µM | TGI [7]: 17.7 µM | GI50 [8]: 0.172 µM | TGI [8]: 24.4 µM | GI50 [9]: 21.3 µM | TGI [9]: 44.5 µM | GI50 [10]: 0.558 µM | TGI [10]: 16.6 µM | GI50 [11]: 6.91 µM | TGI [11]: 65.9 µM | GI50 [12]: 0.411 µM | TGI [12]: 13 µM | GI50 [13]: 0.191 µM | TGI [13]: 0.931 µM | GI50 [14]: 0.16 µM | TGI [14]: 17.3 µM | GI50 [15]: 0.288 µM | TGI [15]: 18.6 µM | GI50 [16]: 0.422 µM | TGI [16]: 7.3 µM | GI50 [17]: 0.43 µM | TGI [17]: 45.5 µM | GI50 [18]: 0.712 µM | TGI [18]: 70.4 µM | GI50 [19]: 13.6 µM | TGI [19]: 59.7 µM | GI50 [20]: 7.45 µM | TGI [20]: 25.5 µM | GI50 [21]: 0.632 µM | TGI [21]: 8.11 µM | GI50 [22]: 0.0997 µM | TGI [22]: > 100 µM | GI50 [23]: 0.424 µM | TGI [23]: 33.2 µM | GI50 [24]: 0.715 µM | TGI [24]: 15.3 µM | GI50 [25]: 0.3 µM | TGI [25]: 4.83 µM | GI50 [26]: 0.267 µM | TGI [26]: 12.1 µM | GI50 [27]: 0.7 µM | TGI [27]: 24.4 µM | GI50 [28]: 0.847 µM | TGI [28]: 18.2 µM | GI50 [29]: 0.462 µM | TGI [29]: 16.5 µM
